Like-named read-outs stand apart in the source and are kept apart here.

The subject of data set [1] is T. cruzi trypomastigotes Dm28c-Luc. Nature of the data set: Trypanocidal activity against trypomastigotes, Dm28c-Luc clone (luciferase). Type of data set: cell-based, Trypanosoma cruzi. The following applies: 24 h, mean ± SD of three experiments; for IC50: read-out: Trypanocidal Effect Trypomastigotes Dm28c-Luc IC50; for IC90: read-out: Trypanocidal Effect Trypomastigotes Dm28c-Luc IC90. How it is done: (§1) T. cruzi Dm28c-Luc clone, genetically modified to express firefly luciferase, and Y strain were used in the drug screening assay. Vero cells were infected with T. cruzi, Dm28c-Luc or Y strain, in a 10:1 parasites/host cell ratio and maintained at 37 °C in humidified atmosphere of 5% CO2. Trypomastigotes were harvested from the infected culture supernatant on the 4th day post-infection (dpi) followed by quantification of the number of parasites/mL in Neubauer chamber.
(§2) Screening of the compounds was performed against trypomastigotes and intracellular amastigote forms. Trypomastigotes (1 × 10^6 parasites/well), Dm28c-Luc clone and Y strain, were incubated for 24 h at 37 °C with the 1,4 naphthoquinone derivatives and Bz (0.41–100 μM) and their viability determined by the activity of the luciferase enzyme, after addition of luciferin substrate (300 μg/mL), or CellTiter Glo. The luminescent signal was detected on the FlexStation 3 reader.

A short description of data set [2]: Cytotoxicity in vitro assay (CellTiter Glo, ATP level). Type of data set: cell-based. The note with it: African green monkey, Vero cells. How it is done: The cultures were maintained at 37 °C in humidified atmosphere of 5% CO2.
To evaluate the toxic effects of the 1,4-naphthoquinone derivatives on mammalian cells, Vero cells were seeded at a density of 1.5 × 10^4 cells/well in 96-well white culture plates. Twenty-four hours later, the cell cultures were incubated for 72 h at 37 °C with 1,4-naphthoquinone derivatives (series 1(a–i) and 2(a–j)) and Bz (500–1.9 µM) diluted in RPMI medium supplemented with 10% FBS. After incubation, the cell viability, measured by ATP level, was assessed by adding 20 µL/well of the CellTiter Glo (Promega Corporation, Madison, WI, EUA) solution. The luminescent signal was read on the FlexStation 3 reader (Molecular Devices, Sunnyvale, CA, USA). […] All treatments and controls were performed at low concentration (≤1%) of dimethyl sulfoxide (DMSO). At least three independent assays were performed in duplicate.

In data set [3] the test system is intracellular amastigotes of T. cruzi (Dm28c-Luc clone). Nature of the data set: Luminescent screening against intracellular amastigotes in infected Vero cells. Type of data set: cell-based, Trypanosoma cruzi. The following applies: infected Vero cells treated for 72 h, mean ± SD of three experiments. How it is done:
as §1
The effect of the compounds against intracellular amastigotes was screened in 72 h T. cruzi-infected Vero cells. Briefly, Vero cells seeded (1.5 × 10^4 cells/well) on 96-well white plate infected with trypomastigotes (Dm28c-Luc) at a 10:1 multiplicity of parasites/cell. After 24 h of infection, the cultures were washed with PBS and then, treated for 72 h at 37 °C with naphthoquinone derivatives and Bz (0.41–100 µM). After treatment, luciferin (300 µg/mL) was added to the culture and the viability of the parasites was assessed by reading the luminescent signal using the FlexStation 3 reader. Controls were also performed in no-toxic concentrations of DMSO (≤1%).

Data set [4] deals with T. cruzi trypomastigotes Y strain. Nature of the data set: Trypanocidal activity against trypomastigotes, Y strain (CellTiter Glo). Type of data set: cell-based. The note with it: Trypanosoma cruzi, 24 h. How it is done:
as §1, §2

The next data set relates to T. cruzi Y strain. Nature of the data set: Murine model of T. cruzi acute infection. Type of data set: in vivo, Trypanosoma cruzi.
Data set [5] can be described thus: Mouse acute toxicity (NOAEL). Type of data set: in vivo.
Protocol: Treated animals were separated into two groups: (1) 5 consecutive doses of 50 mg/kg and (2) 100 mg/kg every 1h, totaling a cumulative dose of 250 mg/kg and 500 mg/kg, respectively. Untreated and vehicle treated animals (PBS with 3% Tween-80) were used as control groups. Mice were inspected for toxic and sub-toxic symptoms according to Organization for Economic Co-operation and Development (OECD) guidelines [46].
A further data set has as its system T. cruzi. Set-up: method as in PMID 18788881. The following applies: C3H/HeN female infected mice, cited from earlier work.
The mark [6] stands for this setting: Table 1, mean ± SD, read-out: Vero Cells Toxicity CC50.
The mark [7] stands for this setting: read-out: Trypanocidal Effect Trypomastigotes Y Strain IC50, trypomastigotes, 24 h, mean ± SD of three experiments.
[8] abbreviates: read-out: Trypanocidal Effect Trypomastigotes Y Strain IC90, trypomastigotes, 24 h, mean ± SD of three experiments.
The mark [9] stands for this setting: trypomastigotes, mean ± SD of three experiments, read-out: Trypanocidal Effect Trypomastigotes Y Strain IC50.
[10] abbreviates: trypomastigotes, mean ± SD of three experiments, read-out: Trypanocidal Effect Trypomastigotes Y Strain IC90.

Protocol for T. cruzi Y strain: Male Swiss Webster mice (18 g) were obtained from the Institute of Science and Technology in Bio-models of the Oswaldo Cruz Foundation, Rio de Janeiro, Brazil. […] The animals received water and an ad libitum feeding regimen. Mice were intraperitoneally (i.p.) infected with bloodstream trypomastigotes of T. cruzi Y strain (10^4 parasites/animal) and parasitemia was daily evaluated from the 4th dpi. […] Daily treatment (0.1 mL i.p. dose) started at 5 days post-infection (dpi) with positive parasitemia and followed up to 10 dpi.
Parasitemia was estimated by Pizzy-Brener method [47]. Briefly, animals parasitemia were determined by microscopic quantification of fresh blood (5 µL) collected from animals’ caudal vein. Mortality was daily evaluated up to 26 days and expressed in survival rates.

Consider `O=C(Cn1ccnc1[N+](=O)[O-])NCc1ccccc1` [Bz, benznidazole, reference compound], for which the IC50 (commonly the concentration that gives 50% inhibition) worked out at 17.5 ± 3.3 µM in data set [1] (Trypanosoma cruzi), 1.4 ± 0.4 µM in data set [3] (Trypanosoma cruzi) and 14.3 ± 3.2 µM in data set [4] (setting [7]). Further, the values for the IC90 in data set [1] (Trypanosoma cruzi), in data set [3] (Trypanosoma cruzi) and in data set [4] (setting [8]) were over 100 µM, 7.9 ± 1.2 µM and over 100 µM, respectively. The CC50 (usually the concentration that lowers cell viability or growth by half) at 72 h in data set [2] (setting [6]) was over 500 µM; in data set [2] (Table 2, read-out: CC50 Vero) it was over 500 µM. Also, the “parasitemia by microscopic analysis” value with T. cruzi Y strain (infected mice treated orally with Bz 100 mg/kg/day) was “undetectable parasitemia”. In addition, the survival result in the data set on T. cruzi Y strain (infected mice treated orally with Bz 100 mg/kg/day, 26 days) was “survived during all period analyzed”.

In the case of `O=C1C(O)=C(C(Sc2ccc(Cl)cc2)c2cn(-c3cc(Cl)cc(Cl)c3)nn2)C(=O)c2ccccc21` (stereo not shown) [Compound 1e, 2-(((4-chlorophenyl)thio)(1-(3,5-dichlorophenyl)-1H-1,2,3-triazol-4-yl)methyl)-3-hydroxynaphthalene-1,4-dione], the melting point (commonly the temperature, or range, at which the solid turns liquid) lay in the range of 142 to 143 °C. For the same compound, in data set [1] (Trypanosoma cruzi), the concentration for half-maximal inhibition (IC50) was about 4.5 µM and the IC90 (usually the point of the concentration-response curve where the effect stands at 90%) came to 16.5 ± 2.8 µM. Also, in data set [2] (setting [6]), the CC50 at 72 h is 34.1 ± 2.9 µM. In addition, the CC50 at 72 h in data set [2] (Table 2, read-out: CC50 Vero) came out at 34.1 ± 7.5 µM. The compound further gave an IC50 in data set [3] (Trypanosoma cruzi, Vero, 72 h) of 9.1 ± 0.7 µM. In data set [3] (Trypanosoma cruzi), this compound registered an IC90 of 27.9 ± 3.9 µM. Also, in data set [4] (setting [7]), the IC50 was about 4.5 µM. Besides, in data set [4] (setting [9]), the concentration for half-maximal inhibition (IC50) is 4.7 ± 1.9 µM. In data set [4] (setting [10]), the IC90 stood at 5.5 ± 0.9 µM.

Regarding `COc1ccc(C(Sc2ccc(Cl)cc2)C2=C(O)C(=O)c3ccccc3C2=O)cc1` (stereo not shown) [Compound 1g, 2-(((4-chlorophenyl)thio)(4-methoxyphenyl)methyl)-3-hydroxynaphthalene-1,4-dione], the IC90 in data set [1] was 19.3 ± 3.4 µM; in data set [1] (Trypanosoma cruzi), at most 19.3 µM; in data set [3] (Trypanosoma cruzi) it was 11.4 ± 2.1 µM; in data set [4] (setting [8]), at most 19.3 µM; in data set [4] (setting [10]), 16.8 ± 2.5 µM. Besides, the half-maximal inhibitory concentration (IC50) in data set [1] (Trypanosoma cruzi) was 8.1 ± 0.6 µM; in data set [3] (Trypanosoma cruzi, Vero, 72 h), at most 6.9 µM; in data set [3] it was 6.7 ± 1.8 µM; in data set [4] (setting [9]) it was 10.2 ± 0.5 µM. Moreover, in data set [5] (intraperitoneal, cumulative dose of 500 mg/kg (5 x 100 mg/kg), n = 2), the “death in acute toxicity assessment” value was “one animal died”. Besides, in data set [5] (oral and i.p. cumulative doses, acute toxicity assessment), the “changes in mouse behavioral characteristics” value is “not observed”. In addition, in data set [5] (oral and i.p., five doses of 50 mg/kg 1 h apart, total cumulative dose 250 mg/kg, up to 48 h post-treatment), the “toxic side effects according to the OECD guidelines” value is reported as “No toxic side effects”. Besides, the CC50 at 72 h stood at 99.9 ± 12.5 µM in data set [2] (setting [6]) and 99.5 ± 12.5 µM in data set [2] (Table 2, read-out: CC50 Vero). Further, in the data set with T. cruzi Y strain (Swiss Webster male mice, 10^4 Y strain trypomastigotes, i.p. treatment 5 consecutive days from 5 dpi, C2 50 and 100 mg/kg/day, 1g 50 mg/kg/day), the “parasitemia / parasitic load” value is listed as “not efficient in eliminating the parasites”. In addition, the “prevention of mortality / survival” value in the data set with T. cruzi Y strain (Swiss Webster male mice, Y strain, i.p. treatment from 5 dpi, C2 50 and 100 mg/kg/day, 1g 50 mg/kg/day) is “not able to prevent mortality”.

The compound `COc1ccc(C(Sc2ccccc2C)C2=C(O)C(=O)c3ccccc3C2=O)cc1` (stereo not shown) [Compound 2b, 2-Hydroxy-3-((4-methoxyphenyl)(o-tolylthio)methyl) naphthalene-1,4-dione] yielded a melting point of 54 to 55 °C. Besides, in data set [1] (Trypanosoma cruzi), the half-maximal inhibitory concentration (IC50) was found to be 25.9 ± 2.2 µM and the 90% effect concentration (IC90) came to 31.8 ± 0.9 µM. For the same compound, the CC50 at 72 h in data set [2] (setting [6]) was 44.4 ± 3.4 µM. For the same compound, in data set [2] (Table 2, read-out: CC50 Vero), the CC50 at 72 h turned out to be 44.4 ± 3.4 µM. The same compound displayed an IC50 in data set [3] (Trypanosoma cruzi, Vero, 72 h) of about 12 µM. Moreover, the IC90 in data set [3] (Trypanosoma cruzi) came out at 27.4 ± 2.4 µM. The compound also gave an IC50 in data set [3] of 11.3 ± 1.1 µM. In addition, the 50% inhibitory concentration (IC50) in data set [4] (setting [9]) came to 27.9 ± 4.1 µM. Also, the IC90 in data set [4] (setting [10]) amounted to 37.9 ± 6.1 µM.

The compound `COc1ccc(C(Sc2ccc(F)cc2)C2=C(O)C(=O)c3ccccc3C2=O)cc1` (stereo not shown) [Compound 2e, 2-(((4-fluorophenyl)thio)(4-methoxyphenyl)methyl)-3-hydroxynaphthalene-1,4-dione] gave a melting point of 132 to 134 °C. In data set [1] (Trypanosoma cruzi), the IC50 stood at 24.4 ± 4.4 µM and the IC90 worked out at 31.4 ± 4.4 µM. In data set [2] (setting [6]), the CC50 at 72 h amounted to 47.7 ± 3.2 µM. The CC50 at 72 h in data set [2] (Table 2, read-out: CC50 Vero) came out at 47.7 ± 3.2 µM. In data set [3] (Trypanosoma cruzi, Vero, 72 h), this compound had an IC50 of at most 6.9 µM. The compound further registered an IC90 in data set [3] (Trypanosoma cruzi) of 19.7 ± 3.2 µM. This compound came in with an IC50 in data set [3] of 6.8 ± 1.5 µM. Besides, the IC50 in data set [4] (setting [9]) came to 20.3 ± 4.1 µM. In data set [4] (setting [10]), the concentration for an effect of 90% (IC90) was 32.3 ± 5.1 µM.

For the compound `COc1ccc(C(Sc2ccc3ccccc3c2)C2=C(O)C(=O)c3ccccc3C2=O)cc1` (stereo not shown) [Compound 2h, 2-Hydroxy-3-((4-methoxyphenyl)(naphthalen-2-ylthio)methyl) naphthalene-1,4-dione], the melting point lay within 56 to 57 °C. Besides, in data set [1] (Trypanosoma cruzi), the half-inhibitory concentration (IC50) was determined as 21.7 ± 4.7 µM and the IC90 worked out at 39.7 ± 5.7 µM. The cytotoxic concentration (CC50) at 72 h in data set [2] (setting [6]) was determined as 63.4 ± 7.1 µM. The 50% cytotoxic concentration (CC50) at 72 h in data set [2] (Table 2, read-out: CC50 Vero) was 63.4 ± 7.1 µM. For the same compound, the 50% inhibitory concentration (IC50) in data set [3] (Trypanosoma cruzi, Vero, 72 h) was 22.4 ± 2.2 µM. The same compound returned an IC90 in data set [3] (Trypanosoma cruzi) of 31.5 ± 6.1 µM. In data set [4] (setting [9]), the IC50 is 24.5 ± 3.6 µM. Besides, the IC90 in data set [4] (setting [10]) turned out to be 34.5 ± 4.6 µM.

With `O=C1C(c2ccccc2)=C(c2ccccc2)C(=O)c2ccccc21` [DPNQ, 2,3-diphenyl-1,4-naphthoquinone], the animal survival in the data set on T. cruzi (up to 70 dpi) is recorded as 60%. The parasite load entry in the data set with T. cruzi is “reduced two-fold the parasite load”.

Values taken from article PMC7829778, “Optimization of 1,4-Naphthoquinone Hit Compound: A Computational, Phenotypic, and In Vivo Screening against Trypanosoma cruzi” (Molecules, 2021).
